# Test results reported in ChEMBL document CHEMBL4145544, “Discovery and optimization of 1-(1H-indol-1-yl)ethanone derivatives as CBP/EP300 bromodomain inhibitors for the treatment of castration-resistant prostate cancer” (Eur J Med Chem, 2018).
# Active and inactive are the calls of the source. The calls are words filed in the database; no cut-off is given here.
# Assays:
# [1] = target: T1, Bromodomain-containing protein 4 (Homo sapiens, UniProt O60885); experiment: Inhibition of biotinylated-H4KAc4 binding to human His6-tagged BRD4 bromodomain-1 (N44 to E168 residues) expressed in Escherichia coli BL21(DE3) at 50 uM after 2.5 hrs by luminescence-based AlphaScreen assay relative to control
# [2] = target: T2, Bromodomain adjacent to zinc finger domain protein 2B (Homo sapiens, UniProt Q9UIF8); experiment: Inhibition of biotinylated-H4KAc4 binding to human His6-tagged BAZ2B (S1858 to S1972 residues) expressed in Escherichia coli BL21(DE3) after 2.5 hrs by luminescence-based AlphaScreen assay
# T2 sequence (Q9UIF8 whole entry, the tested form may be a part): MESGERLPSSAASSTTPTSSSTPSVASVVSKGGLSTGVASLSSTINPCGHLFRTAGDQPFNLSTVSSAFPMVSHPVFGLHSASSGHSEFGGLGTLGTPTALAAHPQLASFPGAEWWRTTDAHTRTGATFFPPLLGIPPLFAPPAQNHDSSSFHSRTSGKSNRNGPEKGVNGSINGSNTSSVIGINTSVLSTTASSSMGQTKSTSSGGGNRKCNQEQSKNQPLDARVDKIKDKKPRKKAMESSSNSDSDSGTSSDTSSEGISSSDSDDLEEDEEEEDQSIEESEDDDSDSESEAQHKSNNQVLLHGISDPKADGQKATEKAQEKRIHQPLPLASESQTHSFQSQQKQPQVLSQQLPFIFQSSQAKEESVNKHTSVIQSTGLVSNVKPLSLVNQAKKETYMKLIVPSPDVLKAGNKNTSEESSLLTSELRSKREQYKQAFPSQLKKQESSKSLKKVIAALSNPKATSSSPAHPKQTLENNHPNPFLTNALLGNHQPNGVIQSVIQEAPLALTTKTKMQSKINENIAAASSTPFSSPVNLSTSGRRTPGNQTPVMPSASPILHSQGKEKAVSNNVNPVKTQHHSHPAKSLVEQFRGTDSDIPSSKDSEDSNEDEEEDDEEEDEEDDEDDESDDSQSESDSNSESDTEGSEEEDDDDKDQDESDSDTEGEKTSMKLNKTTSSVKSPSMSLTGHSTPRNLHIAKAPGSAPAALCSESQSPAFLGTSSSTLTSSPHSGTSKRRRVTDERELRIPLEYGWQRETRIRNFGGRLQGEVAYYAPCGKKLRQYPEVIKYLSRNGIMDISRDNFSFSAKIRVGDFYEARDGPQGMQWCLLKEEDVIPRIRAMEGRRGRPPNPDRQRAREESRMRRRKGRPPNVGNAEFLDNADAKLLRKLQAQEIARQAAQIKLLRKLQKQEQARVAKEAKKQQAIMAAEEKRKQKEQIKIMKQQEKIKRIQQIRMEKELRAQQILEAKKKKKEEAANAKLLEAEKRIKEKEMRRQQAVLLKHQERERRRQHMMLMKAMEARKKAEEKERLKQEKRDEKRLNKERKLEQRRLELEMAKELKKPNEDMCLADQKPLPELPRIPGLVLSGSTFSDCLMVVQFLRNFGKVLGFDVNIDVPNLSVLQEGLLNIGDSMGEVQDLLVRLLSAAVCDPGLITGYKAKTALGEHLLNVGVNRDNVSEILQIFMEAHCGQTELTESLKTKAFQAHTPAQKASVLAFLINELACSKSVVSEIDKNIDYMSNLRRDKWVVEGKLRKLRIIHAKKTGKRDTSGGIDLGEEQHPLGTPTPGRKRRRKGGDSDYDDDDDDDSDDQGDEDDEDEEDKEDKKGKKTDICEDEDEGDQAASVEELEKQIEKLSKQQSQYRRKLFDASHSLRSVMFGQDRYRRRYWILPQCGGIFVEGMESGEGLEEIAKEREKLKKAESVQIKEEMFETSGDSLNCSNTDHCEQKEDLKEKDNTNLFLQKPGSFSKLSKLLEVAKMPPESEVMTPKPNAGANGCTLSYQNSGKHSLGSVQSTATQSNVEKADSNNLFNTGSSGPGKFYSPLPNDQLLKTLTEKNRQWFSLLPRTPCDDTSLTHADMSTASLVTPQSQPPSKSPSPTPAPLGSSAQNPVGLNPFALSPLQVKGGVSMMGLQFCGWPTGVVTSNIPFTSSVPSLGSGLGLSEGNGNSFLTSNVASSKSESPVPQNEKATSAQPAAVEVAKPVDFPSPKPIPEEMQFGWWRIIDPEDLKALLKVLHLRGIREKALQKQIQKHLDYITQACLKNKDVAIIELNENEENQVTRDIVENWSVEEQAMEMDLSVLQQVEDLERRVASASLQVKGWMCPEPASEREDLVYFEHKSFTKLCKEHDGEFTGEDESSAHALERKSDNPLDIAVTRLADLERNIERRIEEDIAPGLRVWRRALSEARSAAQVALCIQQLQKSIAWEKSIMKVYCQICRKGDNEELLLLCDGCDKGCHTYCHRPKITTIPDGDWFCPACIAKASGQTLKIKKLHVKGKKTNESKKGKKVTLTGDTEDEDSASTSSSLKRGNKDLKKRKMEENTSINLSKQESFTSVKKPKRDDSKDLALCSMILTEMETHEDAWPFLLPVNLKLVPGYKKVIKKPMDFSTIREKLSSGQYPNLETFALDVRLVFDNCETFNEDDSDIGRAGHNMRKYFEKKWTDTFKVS
# [3] = target: T3, Bromodomain-containing protein 9 (Homo sapiens, UniProt Q9H8M2); experiment: Inhibition of biotinylated-H4KAc4 binding to human His6-tagged BRD9 (L14 to Q134 residues) expressed in Escherichia coli BL21(DE3) after 2.5 hrs by luminescence-based AlphaScreen assay
# T3 sequence (Q9H8M2 whole entry): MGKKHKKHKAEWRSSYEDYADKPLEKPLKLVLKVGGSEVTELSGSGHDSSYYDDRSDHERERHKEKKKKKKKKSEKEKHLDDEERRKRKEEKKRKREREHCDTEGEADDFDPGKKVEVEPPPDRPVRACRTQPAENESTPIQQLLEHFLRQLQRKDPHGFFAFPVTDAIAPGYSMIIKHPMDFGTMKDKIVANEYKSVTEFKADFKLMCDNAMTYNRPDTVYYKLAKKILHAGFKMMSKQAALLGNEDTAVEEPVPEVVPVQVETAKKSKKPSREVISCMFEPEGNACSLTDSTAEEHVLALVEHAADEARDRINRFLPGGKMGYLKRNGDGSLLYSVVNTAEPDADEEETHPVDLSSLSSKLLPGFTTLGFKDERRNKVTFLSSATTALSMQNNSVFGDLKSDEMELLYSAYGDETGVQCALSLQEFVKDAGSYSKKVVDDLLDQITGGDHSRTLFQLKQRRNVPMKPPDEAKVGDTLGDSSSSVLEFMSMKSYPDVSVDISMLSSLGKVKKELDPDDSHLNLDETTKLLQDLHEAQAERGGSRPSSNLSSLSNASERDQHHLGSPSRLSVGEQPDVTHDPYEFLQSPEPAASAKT
# [4] = target: T4, Transcription intermediary factor 1-alpha (Homo sapiens, UniProt O15164); experiment: Inhibition of biotinylated-H4KAc4 binding to human His6-tagged TIF-1 (G896 to E1014 residues) expressed in Escherichia coli BL21(DE3) after 2.5 hrs by luminescence-based AlphaScreen assay
# T4 sequence (O15164 whole entry): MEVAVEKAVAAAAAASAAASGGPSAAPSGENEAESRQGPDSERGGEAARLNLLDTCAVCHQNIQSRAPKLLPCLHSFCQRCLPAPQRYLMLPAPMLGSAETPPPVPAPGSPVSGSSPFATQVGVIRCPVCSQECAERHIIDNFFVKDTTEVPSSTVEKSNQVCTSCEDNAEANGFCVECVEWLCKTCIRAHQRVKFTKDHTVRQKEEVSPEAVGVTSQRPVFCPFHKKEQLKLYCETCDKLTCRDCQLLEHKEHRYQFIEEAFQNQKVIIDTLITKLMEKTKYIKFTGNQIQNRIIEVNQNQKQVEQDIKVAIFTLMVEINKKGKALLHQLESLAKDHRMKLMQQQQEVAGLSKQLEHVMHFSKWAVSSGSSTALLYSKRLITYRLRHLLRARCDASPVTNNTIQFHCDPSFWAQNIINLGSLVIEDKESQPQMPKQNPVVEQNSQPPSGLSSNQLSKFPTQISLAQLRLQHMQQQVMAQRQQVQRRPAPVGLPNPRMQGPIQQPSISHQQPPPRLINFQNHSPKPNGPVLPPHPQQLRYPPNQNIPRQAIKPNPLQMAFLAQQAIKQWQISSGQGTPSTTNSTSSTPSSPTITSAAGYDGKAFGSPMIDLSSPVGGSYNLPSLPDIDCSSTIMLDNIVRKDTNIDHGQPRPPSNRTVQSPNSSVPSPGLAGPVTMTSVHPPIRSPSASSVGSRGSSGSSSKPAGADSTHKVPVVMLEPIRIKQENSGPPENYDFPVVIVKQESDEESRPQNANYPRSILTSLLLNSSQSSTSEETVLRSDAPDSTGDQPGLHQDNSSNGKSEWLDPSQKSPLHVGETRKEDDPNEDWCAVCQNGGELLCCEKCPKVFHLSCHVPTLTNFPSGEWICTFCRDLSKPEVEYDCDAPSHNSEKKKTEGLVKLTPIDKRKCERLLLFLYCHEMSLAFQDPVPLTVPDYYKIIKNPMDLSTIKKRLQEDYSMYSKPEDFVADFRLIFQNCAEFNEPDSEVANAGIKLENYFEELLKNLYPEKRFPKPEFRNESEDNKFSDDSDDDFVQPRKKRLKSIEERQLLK
# [5] = target: T5, Transcription initiation factor TFIID subunit 1 (Homo sapiens, UniProt P21675); experiment: Inhibition of biotinylated-H4KAc4 binding to human His6-tagged TAF-1 (R1377 to D1503 residues) expressed in Escherichia coli BL21(DE3) after 2.5 hrs by luminescence-based AlphaScreen assay
# T5 sequence (P21675 whole entry, the tested form may be a part): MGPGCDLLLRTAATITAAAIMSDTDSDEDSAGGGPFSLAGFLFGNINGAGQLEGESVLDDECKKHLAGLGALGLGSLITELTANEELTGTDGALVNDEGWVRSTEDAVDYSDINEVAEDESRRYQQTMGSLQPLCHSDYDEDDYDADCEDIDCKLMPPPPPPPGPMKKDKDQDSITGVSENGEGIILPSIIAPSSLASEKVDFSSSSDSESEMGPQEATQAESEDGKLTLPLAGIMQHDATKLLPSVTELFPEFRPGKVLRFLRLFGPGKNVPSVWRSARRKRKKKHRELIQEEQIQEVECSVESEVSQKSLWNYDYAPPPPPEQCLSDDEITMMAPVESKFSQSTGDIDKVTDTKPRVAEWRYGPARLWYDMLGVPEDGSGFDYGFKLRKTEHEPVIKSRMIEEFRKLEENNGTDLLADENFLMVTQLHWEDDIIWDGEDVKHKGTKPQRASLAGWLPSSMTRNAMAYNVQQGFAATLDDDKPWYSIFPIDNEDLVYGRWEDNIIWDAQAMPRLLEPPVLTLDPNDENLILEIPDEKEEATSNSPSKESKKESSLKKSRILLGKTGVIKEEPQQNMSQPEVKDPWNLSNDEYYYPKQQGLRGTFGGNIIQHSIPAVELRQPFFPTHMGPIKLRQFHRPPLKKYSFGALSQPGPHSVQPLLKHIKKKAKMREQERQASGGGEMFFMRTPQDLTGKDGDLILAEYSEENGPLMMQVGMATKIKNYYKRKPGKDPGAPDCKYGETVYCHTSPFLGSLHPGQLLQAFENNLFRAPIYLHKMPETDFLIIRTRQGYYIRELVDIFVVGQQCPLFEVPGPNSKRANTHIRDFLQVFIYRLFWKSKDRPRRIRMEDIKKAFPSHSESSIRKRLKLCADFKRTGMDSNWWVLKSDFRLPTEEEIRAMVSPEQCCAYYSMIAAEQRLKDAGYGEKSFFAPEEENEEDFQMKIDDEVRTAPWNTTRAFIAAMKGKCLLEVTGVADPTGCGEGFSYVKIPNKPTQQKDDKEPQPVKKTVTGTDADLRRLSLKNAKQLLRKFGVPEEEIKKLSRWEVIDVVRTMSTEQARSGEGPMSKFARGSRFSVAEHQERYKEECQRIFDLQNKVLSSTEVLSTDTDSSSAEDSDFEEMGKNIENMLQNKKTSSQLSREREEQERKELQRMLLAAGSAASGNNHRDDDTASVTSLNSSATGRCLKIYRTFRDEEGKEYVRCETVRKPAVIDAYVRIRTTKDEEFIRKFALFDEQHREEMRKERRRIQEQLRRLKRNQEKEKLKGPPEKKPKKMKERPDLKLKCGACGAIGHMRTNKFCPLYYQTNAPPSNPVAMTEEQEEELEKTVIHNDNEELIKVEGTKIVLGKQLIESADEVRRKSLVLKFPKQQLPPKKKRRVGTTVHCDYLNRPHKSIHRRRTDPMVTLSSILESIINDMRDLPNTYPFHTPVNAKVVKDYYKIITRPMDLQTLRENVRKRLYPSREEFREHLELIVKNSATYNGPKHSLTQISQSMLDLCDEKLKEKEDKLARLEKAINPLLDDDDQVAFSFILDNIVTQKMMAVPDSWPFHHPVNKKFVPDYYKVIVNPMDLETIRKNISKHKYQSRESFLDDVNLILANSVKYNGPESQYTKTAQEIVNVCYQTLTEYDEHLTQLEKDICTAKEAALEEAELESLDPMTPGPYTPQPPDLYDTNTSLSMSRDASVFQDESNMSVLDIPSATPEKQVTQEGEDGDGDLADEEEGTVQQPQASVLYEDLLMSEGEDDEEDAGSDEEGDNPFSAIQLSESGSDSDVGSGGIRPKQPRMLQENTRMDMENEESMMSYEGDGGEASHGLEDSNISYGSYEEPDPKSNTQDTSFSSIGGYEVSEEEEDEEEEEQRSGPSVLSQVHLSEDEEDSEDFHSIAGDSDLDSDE
# [6] = target: T1, Bromodomain-containing protein 4; experiment: Inhibition of biotinylated-H4KAc4 binding to human His6-tagged BRD4 bromodomain-1 (N44 to E168 residues) expressed in Escherichia coli BL21(DE3) after 2.5 hrs by luminescence-based AlphaScreen assay
# [7] = target: T2, Bromodomain adjacent to zinc finger domain protein 2B; experiment: Inhibition of biotinylated-H4KAc4 binding to human His6-tagged BAZ2B (S1858 to S1972 residues) expressed in Escherichia coli BL21(DE3) at 50 uM after 2.5 hrs by luminescence-based AlphaScreen assay relative to control
# [8] = target: T6, Histone acetyltransferase KAT2B (Homo sapiens, UniProt Q92831); experiment: Inhibition of biotinylated-H4KAc4 binding to human His6-tagged PCAF (G715 to D831 residues) expressed in Escherichia coli BL21(DE3) after 2.5 hrs by luminescence-based AlphaScreen assay
# Target sequence in this assay (Q92831 whole entry, the tested form may be a part): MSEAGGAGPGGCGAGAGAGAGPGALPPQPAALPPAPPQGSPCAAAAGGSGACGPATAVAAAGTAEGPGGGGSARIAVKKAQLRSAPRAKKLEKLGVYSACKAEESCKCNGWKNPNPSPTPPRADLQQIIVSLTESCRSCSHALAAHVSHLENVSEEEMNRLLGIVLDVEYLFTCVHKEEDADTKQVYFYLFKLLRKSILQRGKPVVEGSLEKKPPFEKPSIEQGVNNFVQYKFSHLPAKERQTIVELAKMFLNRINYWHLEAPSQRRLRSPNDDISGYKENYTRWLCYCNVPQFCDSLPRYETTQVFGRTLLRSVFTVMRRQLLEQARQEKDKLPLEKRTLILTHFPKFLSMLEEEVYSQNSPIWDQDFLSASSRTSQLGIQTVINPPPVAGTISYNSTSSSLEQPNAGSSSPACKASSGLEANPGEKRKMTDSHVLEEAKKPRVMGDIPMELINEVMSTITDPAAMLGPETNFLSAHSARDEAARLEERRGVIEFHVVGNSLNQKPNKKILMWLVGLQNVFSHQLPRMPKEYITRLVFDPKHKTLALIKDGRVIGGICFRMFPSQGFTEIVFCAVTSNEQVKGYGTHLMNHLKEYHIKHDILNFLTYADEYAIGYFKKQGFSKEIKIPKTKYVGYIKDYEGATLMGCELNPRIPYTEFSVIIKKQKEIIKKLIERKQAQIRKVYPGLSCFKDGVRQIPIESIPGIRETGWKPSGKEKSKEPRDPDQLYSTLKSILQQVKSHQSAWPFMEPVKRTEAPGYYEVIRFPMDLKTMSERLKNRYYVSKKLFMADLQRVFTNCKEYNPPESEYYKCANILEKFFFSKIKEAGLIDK
# [9] = test system: LNCaP; experiment: Antiproliferative activity against human LNCAP cells after 72 hrs by Cell-Titer Glo assay; type: functional, cell-based
# [10] = test system: CWR22R
# Description: (§1) Antiproliferative activity against human 22Rv1 cells after 72 hrs by Cell-Titer Glo assay
# [11] = target: T7, Histone acetyltransferase p300 (Homo sapiens, UniProt Q09472); experiment: Inhibition of biotinylated-H4KAc4 binding to human His6-tagged EP300 (A1040 to G1161 residues) expressed in Escherichia coli BL21(DE3) after 2.5 hrs by luminescence-based AlphaScreen assay
# [12] = target: T8, CREB-binding protein (Homo sapiens, UniProt Q92793); experiment: Inhibition of biotinylated-H4KAc4 binding to human His6-tagged CBP (R1081 to G1197 residues) expressed in Escherichia coli BL21(DE3) after 2.5 hrs by luminescence-based AlphaScreen assay
# [13] = test system: CWR22R; experiment: cells; settings: Homo sapiens, 22Rv1, 72 h
# Description: as §1
# [14] = test system: LNCaP; experiment: Potency index, ratio of enzalutamide IC50 to compound IC50 for antiproliferative activity against human LNCAP cells; type: functional
# [15] = test system: CWR22R; experiment: Potency index, ratio of enzalutamide IC50 to compound IC50 for antiproliferative activity against human 22Rv1 cells; type: functional
# [16] = test system: CWR22R; experiment: Anticlonogenic activity against human 22Rv1 cells after 14 days by crystal violet staining based assay; type: functional, cell-based
# [17] = target: T5, Transcription initiation factor TFIID subunit 1; experiment: Binding affinity to human His6-tagged TAF-1 (R1377 to D1503 residues) expressed in Escherichia coli BL21(DE3) assessed as change in melting temperature at 200 uM after 30 mins by SYPRO orange dye based fluorescence assay
# [18] = target: Bromodomain-containing protein 9 (Homo sapiens) (UniProt Q9H8M2); experiment: Binding affinity to human His6-tagged BRD9 (L14 to Q134 residues) expressed in Escherichia coli BL21(DE3) assessed as change in melting temperature at 200 uM after 30 mins by SYPRO orange dye based fluorescence assay
# [19] = target: Transcription intermediary factor 1-alpha (Homo sapiens) (UniProt O15164); experiment: Binding affinity to human His6-tagged TIF-1 (G896 to E1014 residues) expressed in Escherichia coli BL21(DE3) assessed as change in melting temperature at 200 uM after 30 mins by SYPRO orange dye based fluorescence assay
# [20] = target: T2, Bromodomain adjacent to zinc finger domain protein 2B; experiment: Binding affinity to human His6-tagged BAZ2B (S1858 to S1972 residues) expressed in Escherichia coli BL21(DE3) assessed as change in melting temperature at 200 uM after 30 mins by SYPRO orange dye based fluorescence assay
# [21] = test system: LNCaP C4-2B; experiment: Anticlonogenic activity against human C4-2B cells after 14 days by crystal violet staining based assay; type: functional, cell-based
# [22] = target: T1, Bromodomain-containing protein 4; experiment: Binding affinity to human His6-tagged BRD4 bromodomain-1 (N44 to E168 residues) expressed in Escherichia coli BL21(DE3) assessed as change in melting temperature at 200 uM after 30 mins by SYPRO orange dye based fluorescence assay
# [23] = target: T6, Histone acetyltransferase KAT2B; experiment: Binding affinity to human His6-tagged PCAF (G715 to D831 residues) expressed in Escherichia coli BL21(DE3) assessed as change in melting temperature at 200 uM after 30 mins by SYPRO orange dye based fluorescence assay
# Target sequence in this assay (Q92831 whole entry, looked up, the tested form may be a part): as the sequence (Q92831 whole entry, the tested form may be a part) above
# [24] = target: T7, Histone acetyltransferase p300; experiment: Binding affinity to human His6-tagged EP300 (A1040 to G1161 residues) expressed in Escherichia coli BL21(DE3) assessed as change in melting temperature at 200 uM after 30 mins by SYPRO orange dye based fluorescence assay
# [25] = target: T8, CREB-binding protein; experiment: Binding affinity to human His6-tagged CBP (R1081 to G1197 residues) expressed in Escherichia coli BL21(DE3) assessed as change in melting temperature at 200 uM after 30 mins by SYPRO orange dye based fluorescence assay
# [26] = Homo sapiens, LNCaP, 72 h, read-out: IC50
Structure (SMILES),IC50 [2],IC50 [3],IC50 [4],IC50 [5],IC50 [6],IC50 [8],IC50 ([9]; lncap),IC50 [10],IC50 [11],IC50 [12],also measured
COc1ccc(CCc2nc3cc(-c4c(C)noc4C)ccc3n2C[C@H](C)N2CCOCC2)cc1Cl,> 20 µM,> 20 µM,> 20 µM,> 20 µM,> 20 µM,> 20 µM,Not Active,Not Active,–,–,inhibition [1]: 62%; inhibition [7]: 41%
CC(=O)n1cc(C(=O)Nc2cc(COC3CCCCO3)cc(C(=O)O)c2)c2ccccc21 (configuration not stated),> 20 µM,> 20 µM,> 20 µM,> 20 µM,> 20 µM,> 20 µM,–,–,2.51 µM,1 µM,–
COc1ccc2c(c1)c(C(=O)Nc1cc(C(=O)OC(C)(C)C)cc(-c3ccco3)c1)cn2C(C)=O,–,–,–,–,–,–,–,–,–,–,"IC50 [13]: 4.31 µM; Ratio IC50 [14]: 17; IC50 [9, 26]: 1.76 µM; Ratio IC50 [15]: 17"
CC(=O)n1cc(C(=O)Nc2cccc(C(=O)O)c2)c2ccccc21,> 20 µM,> 20 µM,> 20 µM,> 20 µM,> 20 µM,> 20 µM,–,–,5.55 µM,1.69 µM,–
COc1ccc2c(c1)c(C(=O)Nc1cc(C(=O)O)cc(-c3cnn(C)c3)c1F)cn2C(C)=O,> 20 µM,> 20 µM,> 20 µM,> 20 µM,> 20 µM,> 20 µM,Not Active,Not Active,0.049 µM,0.037 µM,Activity [16]: inactive; ΔTm [17]: 0.6 °C; ΔTm [18]: 0.9 °C; ΔTm [19]: 0 °C; ΔTm [20]: 0.3 °C; Activity [21]: inactive; ΔTm [22]: 1.2 °C; ΔTm [23]: -0.3 °C; ΔTm [24]: 7.2 °C; ΔTm [25]: 8.7 °C
COc1ccc2c(c1)c(C(=O)Nc1cc(C(=O)O)cc(-c3ccco3)c1)cn2C(C)=O,12.2 µM,> 20 µM,> 20 µM,> 20 µM,> 20 µM,> 20 µM,Not Active,Not Active,1.78 µM,0.14 µM,–
CC(=O)n1cc(C(=O)Nc2cc(C(=O)O)ccc2F)c2ccccc21,> 20 µM,> 20 µM,> 20 µM,> 20 µM,> 20 µM,> 20 µM,–,–,4.45 µM,0.77 µM,–
CC(=O)n1cc(C(=O)Nc2cc(C(=O)O)cc(-c3ccco3)c2)c2ccccc21,1.69 µM,> 20 µM,10.4 µM,> 20 µM,2.19 µM,> 20 µM,–,–,0.97 µM,0.65 µM,–
CNC(=O)c1ccc(N2C(=S)N(c3ccc(C#N)c(C(F)(F)F)c3)C(=O)C2(C)C)cc1F [ENZALUTAMIDE],–,–,–,–,–,–,–,–,–,–,"IC50 [9, 26]: 33.8 µM"
